The source of these data is ChEMBL document CHEMBL5518204, “Discovery and Proof of Concept of Potent Dual Polθ/PARP Inhibitors for Efficient Treatment of Homologous Recombination-Deficient Tumors” (J Med Chem, 2024).

The structures appear in SMILES notation. Calls of active or inactive are those of the source. No cut-off for these calls is given here.

The nature of series [1]: Metabolic stability in rat liver microsome assessed as half life. Format: ADME. Conditions: liver microsomes.
The nature of series [2]: Toxicity in BALB/c mouse xenografted with human MDA-MB-231 cells assessed as kidney damage at 20 to 40 mg/kg, ip administered for 21 days by H and E staining based analysis. Conditions: in vivo, 504 h, dose 20-40 mg/kg, time 21 day. Format: organism-based. Background: In xenograft studies the graft and the host belong to different species.
Series [3] deals with HCT-116. Briefly: Antiproliferative activity against BRCA2-deficient human HCT-116 cells assessed as inhibition of cell proliferation incubated for 5 days by MTT assay. Conditions: HCT-116, 120 h. Format: functional, cell-based. (Tetrazolium assays rely on reduction of a dye to a coloured formazan, in cell work by metabolically active cells.)
Series [4] is described as follows: Volume of distribution at steady state in Sprague-Dawley rat at 1 mg/kg, iv by LC-MS/MS analysis. Format: ADME, organism-based. The following applies: in vivo, read-out: Vdss.
Series [5] relates to SK-OV-3. The series is described as follows: Antiproliferative activity against BRCA-proficient human SK-OV-3 cells assessed as inhibition of cell proliferation incubated for 5 days by MTT assay. Conditions: SK-OV-3, 120 h. It counts as functional, cell-based.
The subject of series [6] is MDA-MB-436. Briefly: Inhibition of colony formation in human MDA-MB-436 cells at 2 uM incubated for 9 days by crystal violet staining based analysis. It counts as functional, cell-based. Conditions: time 9.0 day.
Series [7] can be described thus: Metabolic stability in mouse liver microsome assessed as half life. Conditions: liver microsomes. Format: ADME. On the technique in general: Microsomes from liver hold many membrane-bound enzymes, among them those of drug oxidation.
Series [8] concerns the target Poly [ADP-ribose] polymerase 2 (Homo sapiens, UniProt Q9UGN5). The series is described as follows: Inhibition of PARP2 (unknown origin).
Series [9] concerns the target T1, Poly [ADP-ribose] polymerase tankyrase-1 (Homo sapiens, UniProt O95271).
T1 sequence (O95271 whole entry): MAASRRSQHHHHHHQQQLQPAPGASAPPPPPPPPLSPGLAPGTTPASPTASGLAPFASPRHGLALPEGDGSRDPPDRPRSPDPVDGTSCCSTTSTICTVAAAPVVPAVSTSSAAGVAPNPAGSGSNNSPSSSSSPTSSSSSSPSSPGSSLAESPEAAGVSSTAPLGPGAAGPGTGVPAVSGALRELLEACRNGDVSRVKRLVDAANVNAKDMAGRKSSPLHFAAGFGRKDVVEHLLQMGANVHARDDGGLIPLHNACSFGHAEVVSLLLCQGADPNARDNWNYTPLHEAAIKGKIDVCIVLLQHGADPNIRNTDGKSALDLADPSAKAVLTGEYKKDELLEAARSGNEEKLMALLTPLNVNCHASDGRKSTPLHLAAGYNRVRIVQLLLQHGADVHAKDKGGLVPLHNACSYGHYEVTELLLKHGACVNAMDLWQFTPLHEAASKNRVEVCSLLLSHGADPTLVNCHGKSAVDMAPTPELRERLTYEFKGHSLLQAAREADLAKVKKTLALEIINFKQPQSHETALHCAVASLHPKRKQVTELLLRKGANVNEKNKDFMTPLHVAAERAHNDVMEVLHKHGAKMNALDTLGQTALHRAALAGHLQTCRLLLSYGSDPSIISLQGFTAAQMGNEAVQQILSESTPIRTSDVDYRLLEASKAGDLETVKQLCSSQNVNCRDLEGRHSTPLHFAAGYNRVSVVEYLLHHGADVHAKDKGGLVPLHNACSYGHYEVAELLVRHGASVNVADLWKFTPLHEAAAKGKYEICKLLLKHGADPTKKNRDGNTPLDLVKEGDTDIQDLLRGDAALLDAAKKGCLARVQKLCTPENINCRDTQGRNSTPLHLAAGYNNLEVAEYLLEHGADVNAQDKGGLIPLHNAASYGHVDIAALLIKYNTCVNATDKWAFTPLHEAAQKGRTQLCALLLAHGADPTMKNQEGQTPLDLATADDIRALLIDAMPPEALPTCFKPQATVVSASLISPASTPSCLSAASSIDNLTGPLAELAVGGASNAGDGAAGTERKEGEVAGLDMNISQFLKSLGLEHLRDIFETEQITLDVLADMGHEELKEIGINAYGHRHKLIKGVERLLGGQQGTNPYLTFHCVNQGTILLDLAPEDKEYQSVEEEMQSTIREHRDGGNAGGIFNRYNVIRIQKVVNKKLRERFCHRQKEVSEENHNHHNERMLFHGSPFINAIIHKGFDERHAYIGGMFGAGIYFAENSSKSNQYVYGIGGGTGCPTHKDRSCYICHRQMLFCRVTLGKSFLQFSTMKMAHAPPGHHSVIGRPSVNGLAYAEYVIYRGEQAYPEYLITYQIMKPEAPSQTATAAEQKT
Briefly: Inhibition of PARP5a (unknown origin).

Series [10] in a line: Tmax in Sprague-Dawley rat at 1 mg/kg, iv by LC-MS/MS analysis. Format: ADME, organism-based. The following applies: in vivo.
Series [11] concerns the target T2, Protein mono-ADP-ribosyltransferase PARP10 (Homo sapiens, UniProt Q53GL7).
T2 sequence (Q53GL7 whole entry): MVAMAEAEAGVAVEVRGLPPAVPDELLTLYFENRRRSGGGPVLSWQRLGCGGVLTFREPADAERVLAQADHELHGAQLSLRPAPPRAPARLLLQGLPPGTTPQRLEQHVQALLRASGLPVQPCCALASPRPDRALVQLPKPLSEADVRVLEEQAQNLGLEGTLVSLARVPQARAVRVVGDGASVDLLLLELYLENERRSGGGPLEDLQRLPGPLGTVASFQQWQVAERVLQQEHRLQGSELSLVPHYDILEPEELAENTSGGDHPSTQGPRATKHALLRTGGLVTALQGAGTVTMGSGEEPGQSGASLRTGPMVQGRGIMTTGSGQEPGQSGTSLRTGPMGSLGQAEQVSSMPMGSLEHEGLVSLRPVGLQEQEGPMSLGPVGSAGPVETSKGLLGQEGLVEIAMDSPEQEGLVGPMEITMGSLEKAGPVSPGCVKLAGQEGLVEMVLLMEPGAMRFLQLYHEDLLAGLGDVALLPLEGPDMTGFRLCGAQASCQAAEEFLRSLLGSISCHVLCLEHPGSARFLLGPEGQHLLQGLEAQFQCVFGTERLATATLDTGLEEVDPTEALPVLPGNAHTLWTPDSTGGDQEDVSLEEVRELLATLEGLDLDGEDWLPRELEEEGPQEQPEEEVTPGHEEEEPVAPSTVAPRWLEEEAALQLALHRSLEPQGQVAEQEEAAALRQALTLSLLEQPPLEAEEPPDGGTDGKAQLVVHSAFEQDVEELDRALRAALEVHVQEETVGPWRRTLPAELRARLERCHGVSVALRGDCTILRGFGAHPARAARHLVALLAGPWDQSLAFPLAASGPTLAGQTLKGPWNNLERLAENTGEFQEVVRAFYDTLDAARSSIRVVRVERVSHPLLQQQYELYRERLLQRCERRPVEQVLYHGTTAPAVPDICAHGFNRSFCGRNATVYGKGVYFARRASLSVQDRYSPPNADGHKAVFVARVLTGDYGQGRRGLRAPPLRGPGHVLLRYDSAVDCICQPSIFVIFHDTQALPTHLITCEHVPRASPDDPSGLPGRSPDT
Briefly: Inhibition of PARP10 (unknown origin).

Series [12] can be described thus: Cmax in Sprague-Dawley rat at 1 mg/kg, iv by LC-MS/MS analysis. Format: ADME, organism-based. The following applies: in vivo.
A short description of series [13]: Toxicity in BALB/c mouse xenografted with human MDA-MB-231 cells assessed as liver damage at 20 to 40 mg/kg, ip administered for 21 days by H and E staining based analysis. It counts as organism-based. Conditions: in vivo, 504 h, dose 20-40 mg/kg, time 21 day.

Chain of Poly [ADP-ribose] polymerase 2 (Q9UGN5 whole entry): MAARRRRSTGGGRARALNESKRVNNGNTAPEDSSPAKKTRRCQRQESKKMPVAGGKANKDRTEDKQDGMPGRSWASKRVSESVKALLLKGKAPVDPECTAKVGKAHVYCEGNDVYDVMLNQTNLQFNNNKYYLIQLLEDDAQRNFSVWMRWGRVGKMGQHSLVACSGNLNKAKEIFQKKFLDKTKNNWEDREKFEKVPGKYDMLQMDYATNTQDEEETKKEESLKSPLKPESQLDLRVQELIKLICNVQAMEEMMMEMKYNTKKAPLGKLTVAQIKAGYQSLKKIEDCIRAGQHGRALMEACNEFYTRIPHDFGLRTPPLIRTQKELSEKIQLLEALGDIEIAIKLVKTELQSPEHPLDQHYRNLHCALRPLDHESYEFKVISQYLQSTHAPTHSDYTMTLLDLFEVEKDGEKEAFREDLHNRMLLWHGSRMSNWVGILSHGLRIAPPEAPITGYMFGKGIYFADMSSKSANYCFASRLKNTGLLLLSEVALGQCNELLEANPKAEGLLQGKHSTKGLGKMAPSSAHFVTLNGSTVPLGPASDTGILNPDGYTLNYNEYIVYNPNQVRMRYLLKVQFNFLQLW

As to `COc1ccc(Cl)cc1-c1cc(C)ncc1C(=O)Nc1nnc(OCC2CCN(C(=O)c3cc(Cc4n[nH]c(=O)c5ccccc45)ccc3F)CC2)s1`, the half-life (usually how long it takes for the measured level to halve) in series [1] was 3.11 min; in [7], 5.1 min. The Activity result in series [2] and in series [13] was “Non-Toxic” throughout. For the same compound, the IC50 (usually the point on the concentration scale where inhibition reaches its midpoint) worked out at 8900 nM in series [3]; 18900 nM in series [5]; 2.3 nM in [8]; 206 nM in series [9]; 1100 nM in series [11]. Further, in [4], the Vd worked out at 1.12 L/kg. Besides, the inhibition result in [6] is “Active”. Moreover, in series [10], the Tmax – broadly, the time at which the peak concentration occurs – is 4.8 min. For the same compound, the Cmax (commonly the maximum level reached in the sampled fluid or tissue) in [12] stood at 1950 ng/mL.
